# “Also recorded” adds a separate entry of the source. [5mC] = 5-methylcytosine
# Assays:
# [1] = system: Hep G2 human liver cancer cells; test: HepG2 liver tumour growth in CD-1 nude mice (3.7); assay type: in vivo, human cells in mice; conditions: Hep G2, CD-1 nude mice; 2.5 mg/kg i.v. every day, 30 days
# Description: Treatments lasted for 14 days thereafter. Antitumour activities were estimated by the inhibition of tumour volume, which was measured with a caliper on four different occasions over the treatment period. Each point represents mean tumour volume calculated from 5 animals per experimental group. […] Control animals (control) received saline alone for the same period. At the end of the treatments, the animals were sacrificed, tumours were excised and their weights were measured. Each bar represents mean tumour weight calculated from 6 animals per experimental group. […] Treatments lasted for 24 days thereafter. Antitumour activities were estimated by the inhibition of tumour volume, which was measured with a caliper at two-day intervals over the treatment period. Each point represents mean tumour volume calculated from 4 animals per experimental group. […] Treatments lasted for 24 days thereafter. Antitumour activities were estimated by the inhibition of tumour volume, which was measured with a caliper at two-day intervals over the treatment period. Each point represents mean tumour volume calculated from 4 animals per experimental group. […] Treatments lasted for 22 days thereafter. […] Each point represents mean tumour volume calculated from 5 animals per experimental group. […] Treatments lasted for 14 days thereafter. Antitumour activities were estimated by the inhibition of tumour volume, which was measured with a caliper on four different occasions over 16-day period. Each point represents mean tumour volume calculated from 5 animals per experimental group. […] Two different batches of SEQ ID NO:1, synthesized at different times (designated as batch 1 and batch 2), were tested to detect possible batch-specific effects. […] Treatments lasted for 34 days thereafter. Antitumour activities were estimated by the inhibition of tumour volume, which was measured with a caliper at two-day intervals over the treatment period. Each point represents mean tumour volume calculated from 5 animals per experimental group. […] Treatments lasted for 30 days thereafter. Antitumour activities were estimated by the inhibition of tumour volume, which was measured with a caliper at various time intervals over the span of 30 days. Each point represents mean tumour volume calculated from 6 animals per experimental group. […] All treatments were stopped at day 36. Antitumour activities were estimated by the inhibition of tumour volume, which was measured with a caliper. Each point represents mean tumour volume calculated from 5 animals per experimental group. […] All treatments were stopped at day 52. […] Antitumour activities were estimated by the inhibition of tumour volume, which was measured with a caliper.
# [2] = system: human Burkitt's lymphoma (Raji) cells; test: Survival of SCID mice bearing human Burkitt's lymphoma (Raji); assay type: in vivo, human cells in mice; conditions: 10 mg/kg i.v. every second day
# Description: Mice with established human Burkitt's lymphoma tumours were treated every second day with either saline or SEQ ID NO:1 for 44 days as described above. The control group mice all died from disease progression by day 20. At day 44, the SEQ ID NO:1 mice continued treatment on a weekly basis until stopping the treatment at day 73.
# As an additional test of efficacy SEQ ID NO:1 was administered to SCID mice bearing active Burkitt's lymphoma (FIG. 30). Viable human Burkitt's lymphoma (Raji) cells (5×10^6) collected from subconfluent logarithmically growing cultures were injected i.v. into each animal and disease was allowed to establish for 2 days. SEQ ID NO:1, SEQ ID NO:3 and SEQ ID NO:2, in normal saline were administered by tail vein injection every second day at a dose of 10 mg/kg. At day 40 the treatment schedule was reduced to 10 mg/kg every 3 days. Control animals received saline alone, without oligonucleotide. Survival is presented as a percentage of the starting number of mice over time.
# [3] = system: C8161 human metastatic melanoma cells; test: Experimental metastasis assay, C8161 cells, treatment post tumour cell injection; assay type: in vivo, human cells in mice; conditions: C8161 cells i.v. into SCID mice; treatment initiated after 2 days; lungs 5-7 weeks later
# Description: C8161 human melanoma cells were seeded into 100 mm tissue culture dishes at a density of 2×10^6 and incubated overnight at 37° C. in α-MEM medium supplemented with 10% FBS. The cells were trypsinized, collected by centrifugation and aliquots were removed from the suspension to determine the cell viability using trypan blue exclusion test. […] Treatment was initiated after 2 days. Estimates of the number of lung nodules were made 5-7 weeks later, after excised lungs from individual mice were stained with picric acid dye solution (75% picric acid, 20% formaldehyde, 5% glacial acetic acid).
# Murine R3 fibrosarcoma and human C8161 melanoma cells injected into the tail vein of mice form observable lung nodules 2 weeks post-injection. […] To more accurately reflect the clinical situation, mice were treated with SEQ ID NO:1 post tumour cell injection. C8161 human metastatic melanoma cells were seeded into 100 mm tissue culture dishes at a density of 2×10^6 and incubated overnight at 37° C. in α-MEM medium supplemented with 10% FBS. The cells were trypsinized, collected by centrifugation and aliquots were removed from the suspension to determine the cell viability using trypan blue exclusion test. Approximately 1×10^5 cells suspended in 0.1 ml of PBS were injected into the tail veins of 6-8 week old female SCID mice. Treatment was initiated after 2 days. Estimates of the number of lung nodules were made 5-7 weeks later, after excised lungs from individual mice were stained with picric acid dye solution (75% picric acid, 20% formaldehyde, 5% glacial acetic acid). The results are shown in FIG. 31, bars represent the mean number of nodules per mouse with standard error.
# [4] = system: MDA-MB-231 human breast cancer cells; test: MDA-MB-231 breast tumour xenograft in CD-1 nude mice, combination with taxol or doxorubicin (1.7); assay type: in vivo, human cells in mice; conditions: MDA-MB-231, CD-1 nude mice; oligonucleotides 10 mg/kg i.v. every other day; taxol 10 mg/kg, doxorubicin 5 mg/kg i.v. weekly
# Description: After 52 days the mice were sacrificed and the tumours weighed. […] Mitoxantrone was administered intravenously once at the beginning of the treatments at a dose of 2 mg/kg (FIG. 4A) or once a week for four weeks at a reduced dose of 0.8 mg/kg (FIG. 4B). All treatments were stopped at day 50 (FIG. 4A) or 48 (FIG. 4B), respectively. […] Mitoxantrone was administered intravenously once at the beginning of the treatments at a dose of 2 mg/kg (FIG. 5A) or once a week for four weeks at a reduced dose of 0.8 mg/kg (FIG. 5B). All treatments were stopped at day 42 (FIG. 5A) or 38 (FIG. 5B), respectively. […] A2058 is a metastatic melanoma cell line. […] All treatments were stopped at day 24. […] Taxol was administered intravenously once a week at a dose of 10 mg/kg for three (FIG. 7A) or four weeks (FIG. 7C). Doxorubicin was administered intravenously once a week at a dose of 5 mg/kg for first three weeks (FIG. 7A) or for two weeks (FIG. 7C). All treatments were stopped at day 33 (FIG. 7A) or at day 26 (FIG. 7C), respectively. […] In FIG. 7C, antitumour activities were estimated by the inhibition of tumour volume, which was measured with calipers. Each point represents mean tumour volume calculated from 10 animals per experimental group. […] Taxol was administered intravenously once a week for first three weeks and intraperitoneally once a week for next two weeks at a dose of 10 mg/kg. Cisplatin was administered intravenously once a week for first three weeks and intraperitoneally once a week for next two weeks at a dose of 4 mg/kg. All treatments were stopped at day 40. Antitumour activities were estimated by the inhibition of tumour volume, which was measured with caliper. Each point represents mean tumour volume calculated from 9 animals per experimental group.
# [5] = system: HT29 tumour xenografts; test: HT29 tumour xenografts in CD-1 nude mice, methylated oligonucleotides; assay type: in vivo, human cells in mice; conditions: compared with SEQ ID NO:1
# [6] = system: HT-29 human colon cancer cells; conditions: SEQ ID NO:1 6 mg/kg i.v. every day, mitomycin C 3.5 mg/kg/week i.v.
# Description: • 1.1 HT-29 human colon cancer cells (3×10^6 cells in 100 μl of PBS) were subcutaneously injected into the right flank of 6-7 weeks old female CD-1 nude mice. After the size of tumour reached an approximate volume of 50 mm^3, 4 days post tumour cell injection, mitomycin C was administered by bolus infusion into the tail vein at days 4, 11 and 18 with a dose of 3.5 mg/kg/week. […] SEQ ID NO:1 was administered by bolus infusion into the tail vein every day at 6 mg/kg and mitomycin C was administered intravenously at days 4, 11 and 18 with a dose of 3.5 mg/kg/week, one hour after the treatments with SEQ ID NO:1. Control animals received saline alone for the same period as SEQ ID NO:1. All treatments were stopped at day 22. A day after the last treatment, tumours were excised from the animals and their weights were measured.
compound,measurement,setting,value
"5′-ACGCACTCAGCTAGTGACAC-3′ (listed as DNA, chemistry not given here) [SEQ ID NO:3, reference compound]","Inhibitory effect on tumour growth (tumour volume, FIG. 20)",[1],did not differ from that in saline treated mice
same,Survival of mice,"[2]; SCID mice (Example 7, FIG. 30), from day 40 every 3 days",neither SEQ ID NO:3 nor SEQ ID NO:2 control ODNs prolonged survival
same,Survival of mice,"[2]; SCID mice, stopped at day 42, sacrificed day 73, untreated all died within 23 days",no observed efficacy
same,Lung nodule formation / anti-metastatic activity (FIG. 31),[3],no anti-metastatic activity
same,"Antitumour effect (tumour weight / volume, FIG. 7)",[4],no significant anti-tumour activity as a monotherapy; also recorded: does not cooperate with doxorubicin
"SEQ ID NO:5: control oligonucleotide (met-11C) (GGCTAAATCGCTCCACCAAG; listed as DNA, chemistry not fully specified) [reference compound]",Anti-tumour activity (FIG. 33),[5],"measurable, but not significant, effect on the anti-tumour activity"
"CO[C@@]12[C@H](COC(N)=O)C3=C(C(=O)C(C)=C(N)C3=O)N1C[C@@H]1N[C@@H]12 [Mitomycin C, mitomycin C]",Tumour weight as % of saline control,"[6]; HT-29 (colon), SCID mouse as printed",15%
same,"Antitumour effect (tumour weight, FIG. 1)","[6]; HT-29, CD-1 nude mice",significant delay of tumour growth compared to saline control
"SEQ ID NO:4: SEQ ID NO:1 with methylation at the CpG (C9) (GGCTAAATCGCTCCACCAAG; [5mC] at 9, all phosphorothioate, sugars by position and methylation of C not given here)",Anti-tumour activity (FIG. 33),[5],"does not abrogate the anti-tumour activity of SEQ ID NO:1; also recorded: measurable, but not significant, effect on the anti-tumour activity"

# — patent publication US7968526B2, “Antisense oligonucleotides directed to ribonucleotide reductase R2 and uses thereof in the treatment of cancer” (Lorus Therapeutics Inc., priority 2003, dated 2011)
